From article PMC7321114, “Anion Inhibition Studies of the Beta-Carbonic Anhydrase from Escherichia coli” (Molecules, 2020) come the findings set out here.

A value given as a limit tells only on which side of the number the result lay.

For one test, the target named is T1, CynT2 (Escherichia coli, UniProt P61517).
T1 construct: gene can; full-length synthetic gene, 220 residues, no signal peptide, N-terminal His6 fusion (pET100D-Topo), expressed in E. coli BL21(DE3) codon plus, about 29 kDa subunit, tag removal not mentioned
T1 sequence (P61517 whole entry, the tested form may be a part): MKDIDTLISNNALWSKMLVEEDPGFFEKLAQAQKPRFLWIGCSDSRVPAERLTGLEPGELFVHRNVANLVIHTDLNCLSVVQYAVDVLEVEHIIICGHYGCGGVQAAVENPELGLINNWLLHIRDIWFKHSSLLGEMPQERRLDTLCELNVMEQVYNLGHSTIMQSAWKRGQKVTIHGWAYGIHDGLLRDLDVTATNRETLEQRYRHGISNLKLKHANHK
In words: stopped-flow CO2 hydration assay. It counts as biochemical. To be noted: CO2 substrate 1.7-17 mM, pH 8.3, 20 mM Tris, 20 mM NaClO4, 15 min preincubation; read-out: KI (mM) ^1 / CynT2.
With `OB1OB2OB(O)OB(O1)O2` [B4O7^2−], the Ki worked out at 0.25 mM. Take `F[P-](F)(F)(F)(F)F` [PF6^−]: the Ki is greater than 10 mM.

Still in this test, the particulars now being: read-out: KI (mM) ^1 / CynT2.
`Br` [Br^−]: the Ki was determined as 3.8 mM. For `O=S(=O)(O)C(F)(F)F` [CF3SO3^−], the Ki was greater than 10 mM. `N#CO` [CNO^−]: the Ki was 0.58 mM.

For the molecule `S=C(S)S` [CS3^2−], the Ki worked out at 3.1 mM. Same read-out and setting: the result for `[O-][Cl+3]([O-])([O-])O` [ClO4^−] reads greater than 100 mM; that for `Cl` [Cl^−], 6.7 mM; that for `CCN(CC)C(=S)S` [EtNCS2^−], 0.084 mM. For `O=S(=O)(O)F` [FSO3^−], the Ki was 0.83 mM. Still for that read-out and setting: the result for `F` [F^−] reads 9.4 mM. The same measure, in the same setting: in the case of `O=S(O)O` [HSO3^−] it was 3.7 mM. Turning to `S` [HS^−], the Ki worked out at 2.7 mM. With `I` [I^−], the Ki is greater than 10 mM.

Regarding `NS(N)(=O)=O` [NH2SO2NH2], the Ki is 0.011 mM. As for `NS(=O)(=O)O` [NH2SO3H], the Ki was 0.0025 mM.

`O=S(=O)(O)NS(=O)(=O)O` [NH(SO3)2^2−]: the Ki stood at 1.5 mM. For the molecule `O=NO` [NO2^−], the Ki turned out to be 4.9 mM. As for `O=[N+]([O-])O` [NO3^−], the Ki was found to be 2.4 mM. `O=P(O)(O)OP(=O)(O)O` [P2O7^2−]: the Ki is greater than 10 mM. Turning to `OB(O)c1ccccc1` [PhB(OH)2], the Ki was 0.0028 mM. Turning to `[O]=[Re](=[O])(=[O])[OH]` [ReO4^−], the Ki is greater than 10 mM. For the molecule `[O]=[Ru](=[O])(=[O])[OH]` [RuO4^−], the Ki came to 9.5 mM. On to `O=S(=O)(O)OOS(=O)(=O)O` [S2O8^2−], for which the Ki is 6.4 mM.

Take `N#CS` [SCN^−]: the Ki amounted to 5.7 mM. With `O=S(=O)(O)O` [SO4^2−], the Ki is 1.7 mM. Consider `N#C[SeH]` [SeCN^−], for which the Ki was 3.1 mM. `O=[Se](=O)(O)O` [SeO4^2−]: the Ki turned out to be 3.1 mM.

With `O=[Te](=O)(O)O` [TeO4^2−], the Ki was found to be 0.51 mM. `[O]=[V]([OH])([OH])[O][V](=[O])([OH])[OH]` [V2O7^2−]: the Ki is greater than 10 mM.
